Data as given in publication PMC5454592, “Pharmacological and Toxicological Properties of the Potent Oral γ-Secretase Modulator BPN-15606” (The Journal of Pharmacology and Experimental Therapeutics, 2017).
Entries after “also recorded” stand apart in the source; their conditions may differ.

Experiments:
[1] = in vivo; details: cynomolgus monkey
Protocol: The objectives of this study were to determine the MTD of BPN-15606, characterize potential toxicity, and calculate toxicokinetic parameters of BPN-15606 in adult male and female cynomolgus macaques following daily po dose administration at a near-MTD dose of BPN-15606 for 7 consecutive days. In the dose escalation phase to establish the MTD (phase A), male and female cynomolgus macaques (n = 2/sex) were administered single doses of BPN-15606 at 3, 10, 30, 100, and 300 mg/kg, with 2 to 4 days between each dose escalation (Fig. 10). […] The plasma drug concentrations at the approximate Tmax increased in a dose-dependent manner. […] Comprehensive evaluation of clinical pathology parameters (clinical chemistry, hematology), gross pathology, and histopathologic parameters was carried out at SRI International, according to their standardized protocols. Tissues examined histopathologically included the following: liver, lung, stomach, duodenum, colon, spleen, pancreas, thymus, heart, brain, and kidney.

[2] = test system: bone marrow polychromatic erythrocytes; assay: Bone marrow micronucleus assay in rats; assay type: in vivo; details: 7 days at 30 or 100 mg/kg
Protocol: The micronucleus component of this study was performed to evaluate the ability of BPN-15606 to induce chromosomal damage in bone marrow of male Sprague–Dawley rats. Rats (n = 5/group) were scheduled to receive single daily doses of BPN-15606 for 7 days at 30, 100, and 300 mg/kg/d (groups 2, 3, and 4, respectively), with euthanasia scheduled 24 hours after the final dose. Animals receiving 300 mg/kg/d were sacrificed in moribund condition on day 3 or 4 due to excessive toxicity, and micronucleus formation was not evaluated; all other treated animals survived to necropsy. Bone marrow samples collected from the low and mid dose groups (30 and 100 mg/kg) were evaluated for cytotoxicity and for micronucleus formation (see Supplemental Table 8). Three bone marrow smear slides were prepared per animal and fixed in absolute methanol. […] Two slides per animal were stained with acridine orange, coded, and evaluated (blind) using epifluorescence microscopy. […] The criteria employed for identifying and quantitating micronuclei are those described by [Schmid (1975)]. Two principal parameters were determined, as follows: 1) the number of PCE among 200 total red blood cells (RBC) per animal (PCE/RBC ratio), which provides an index of bone marrow cytotoxicity, and 2) the number of micronucleated RNA-positive PCE among a total of 2000 PCE per animal, which provides an index of chromosomal damage.

[3] = in vivo; details: both sexes, cynomolgus monkey, po, repeat dose
[4] = biological target: γ-secretase (Homo sapiens, UniProt P49768); assay: anti-Aβ immunoprecipitation/MALDI-TOF of neuronal cells; assay type: cell-based; parameters: endogenous in cells; host or cells: 'neuronal cells' (not specified further); details: neuronal cells treated overnight with 100 nM
Protocol: All Aβ assays, including the anti-Aβ immunoprecipitation/matrix-assisted laser desorption/ionization time of flight, were carried out as described previously ([Wagner et al., 2014]).

[5] = in vivo; details: rat
Excerpt: The objectives of this toxicity study were to determine maximum tolerated dose (MTD), characterize the potential toxicity, and calculate toxicokinetic parameters of BPN-15606 in adult male Sprague–Dawley rats (8–10 weeks of age) following daily po dose administration for 7 consecutive days, and to evaluate its potential to damage chromosomes or cause mitotic spindle abnormalities in vivo, as measured by the incidence of micronucleus formation in RNA-containing erythrocytes (bone marrow micronucleus assay). An overview of the study design is presented in Supplemental Table 8. Male rats were administered BPN-15606 po for 7 consecutive days at 30, 100, or 300 mg/kg (groups 2, 3, and 4). A control group (group 1) was given vehicle, 15% Labrasol/85% sterile water, at an equivalent dose volume (10 ml/kg). A 375 mg/kg dose (group 5) was included for determination of day 1 plasma drug levels. Clinical observations were recorded twice daily.
All rats in groups 1, 2, and 3 (0, 30, and 100 mg/kg, respectively) survived until their scheduled day 8 sacrifice, and all tissues specified for histologic evaluation were collected. None of the group 4 (300 mg/kg) animals survived the 7-day dosing period: three were sacrificed in moribund condition, and two were found dead. Necropsy examinations were performed on all rats, but, for group 4 animals, tissues for histopathologic examination were collected only from those rats that were sacrificed in moribund condition. Histopathology assessment was conducted on all tissues collected from all animals in groups 1 and 3, and all tissues collected from group 4 animals euthanized moribund. From group 2 rats, the following tissues were examined histopathologically: duodenum; jejunum; ileum; liver; lung; pancreas; spleen; stomach; and thymus, which were evaluated based on findings at the higher dose levels. When present, grossly altered tissues were examined histopathologically from all group 1, 2, and 3 rats, and from moribund sacrifice group 4 rats. Microscopic data were recorded, and a four-step grading system (minimal, mild, moderate, and marked) was used to define gradable changes. Terminology for data capture was consistent with International Harmonization of Nomenclature and Diagnostic Criteria as promulgated by the Society of Toxicologic Pathology.

For `COc1nc(-c2cc(C)c(N[C@@H](C)c3ccc(F)cc3)nn2)ccc1-n1cnc(C)c1` [BPN-15606, (S)-N-(1-(4-fluorophenyl)ethyl)-6-(6-methoxy-5-(4-methyl-1H-imidazol-1-yl)pyridin-2-yl)-4-methylpyridazin-3-amine], the NOAEL ([1]; both sexes) was 30 mg/kg, the MTD ([1]; both sexes, MTD after a single-dose administration) was 300 mg/kg and the “NOEL after a single dose” value ([1]; both) was 30 mg/kg. The “clinical signs after single doses” value ([1]; both) was “limited to emesis in the 100 and 300 mg/kg groups”, the “clinical pathology parameters after single-dose administration” value [1] was “no apparent changes” and the “clinical signs on repeat dosing” value ([1]; po, 300 mg/kg) was “emesis, reduced appetite, and reduced stool”. The “gross findings at necropsy” value ([1]; po, 300 mg/kg) was “no gross findings at necropsy”, the hepatic histopathological findings ([1]; po, 300 mg/kg) was “minimal sinusoidal leukocytosis in two male monkeys and moderate focal fatty infiltration in one female monkey” and the renal histopathological findings ([1]; po, 300 mg/kg) was “mild to moderate proximal tubular necrosis, casts, and dilation with cortical and medullary subacute inflammation”. The “micronucleus induction in bone marrow (micronucleated PCE)” value [2] was “did not induce micronuclei; also recorded: no statistically significant increase”, the “suppression of PCE among RBC in bone marrow” value [2] was “no significant suppression” and the MTD at 6 days [3] was under 300 mg/kg/day. The “Aβ37 peak (IP/MALDI-TOF)” value [4] was “significantly increased”, the “Aβ38 peak (IP/MALDI-TOF)” value [4] was “significantly increased” and the “Aβ40 peak (IP/MALDI-TOF)” value [4] was “significantly reduce”. For the same compound, the “Aβ42 peak (IP/MALDI-TOF)” value [4] was “completely eliminate the peak”, the MTD at 7 days ([5]; male, Sprague-Dawley) was about 100 mg/kg and the mortality ([5]; male, Sprague-Dawley, 300 mg/kg, 7 days) was “either found dead or sacrificed in moribund condition on day 3 or 4”. The NOEL ([5]; male, Sprague-Dawley, 7 days) was at least 30 mg/kg, the MTD at 7 days ([5]; male, Sprague-Dawley, po) was about 100 mg/kg/day and the “no-observed-effect level (NOEL)” value ([5]; male, Sprague-Dawley, po, 7 days) was 30 mg/kg/day. The “absolute number and percent of reticulocytes, of the control values” ([5]; 100 mg/kg) was “about 20%”, the “decrease in mean corpuscular hemoglobin” value ([5]; 100 mg/kg) was 6.9% and the “increase in RBC” value ([5]; 100 mg/kg) was 10.5%. The increase in hemoglobin ([5]; 100 mg/kg) was 10.9%, the liver histopathology ([5]; 300 mg/kg) was “Hepatocyte basophilia, hypertrophy, and lipidosis” and the clinical observations ([5]; po, 30 mg/kg) was “appeared normal throughout the treatment period”.
